Tested on: CYP1A in Hep-i(+) cells
Assay: Determination of CYP1A activity and CYP1A1/CYP1A2 gene expression after 3-MC treatment
Format: cell-based, rat
Conditions: 5 μM for 4 days
Protocol: In order to induce CYP1A activity, cells on Day 8 of hepatocyte induction were treated with 5 μM 3-methylcholanthrene (3-MC) (Sigma) for 4 days (the medium was exchanged on the second day). The control cells were treated only with DMSO as a solvent. Four days later, P450-G1o CYP1A1 Assay (Luciferin-CEE) was used to determine CYP1A activity. According to the manufacturer's instruction, this kit can detect CYP1A2 activity more efficiently than CYP1A1 activity. Following CYP1A activity, the DNA content of the cells was measured to normalize the CYP activity. In order to examine the responsiveness to 3-MC, fold changes in activity were calculated as [mean luminescence in the presence of 3-MC/mean luminescence in the absence of 3-MC] for 3 wells/condition in each experiment to determine an average value for five independent experiments. In two experiments, total RNA was isolated to assess the gene expression levels of CYP1A1 and CTP1A2.

`Cc1ccc2cc3c(ccc4ccccc43)c3c2c1CC3` [3-MC, 3-methylcholanthrene] was tested, and the “CYP1A1 and CYP1A2 gene expressions in response to stimulation” value was “efficiently induced” and the “CYP1A activity in response to stimulation” value was “efficiently induced”.

From patent US10961507B2, “Method for producing hepatic stem/precursor cells from mature hepatic cells using low-molecular-weight compound” (Cynity Co., Ltd., priority 2016, dated 2021)
